Experiments:
TRPM8 [1] = target: T1, TRPM8 (Mus musculus, UniProt Q8R4D5); test: whole-cell voltage clamp of menthol-evoked currents in mTRPM8-transfected HEK293T cells; also Fura-2 calcium imaging; assay type: cell-based
TRPM8 [2] = target: T1, TRPM8; test: whole-cell voltage clamp (V1/[…] shift with […] menthol) and Fura-2 calcium imaging ([…]) in mTRPM8-transfected HEK293T cells; assay type: cell-based

T1 sequence (Q8R4D5 whole entry): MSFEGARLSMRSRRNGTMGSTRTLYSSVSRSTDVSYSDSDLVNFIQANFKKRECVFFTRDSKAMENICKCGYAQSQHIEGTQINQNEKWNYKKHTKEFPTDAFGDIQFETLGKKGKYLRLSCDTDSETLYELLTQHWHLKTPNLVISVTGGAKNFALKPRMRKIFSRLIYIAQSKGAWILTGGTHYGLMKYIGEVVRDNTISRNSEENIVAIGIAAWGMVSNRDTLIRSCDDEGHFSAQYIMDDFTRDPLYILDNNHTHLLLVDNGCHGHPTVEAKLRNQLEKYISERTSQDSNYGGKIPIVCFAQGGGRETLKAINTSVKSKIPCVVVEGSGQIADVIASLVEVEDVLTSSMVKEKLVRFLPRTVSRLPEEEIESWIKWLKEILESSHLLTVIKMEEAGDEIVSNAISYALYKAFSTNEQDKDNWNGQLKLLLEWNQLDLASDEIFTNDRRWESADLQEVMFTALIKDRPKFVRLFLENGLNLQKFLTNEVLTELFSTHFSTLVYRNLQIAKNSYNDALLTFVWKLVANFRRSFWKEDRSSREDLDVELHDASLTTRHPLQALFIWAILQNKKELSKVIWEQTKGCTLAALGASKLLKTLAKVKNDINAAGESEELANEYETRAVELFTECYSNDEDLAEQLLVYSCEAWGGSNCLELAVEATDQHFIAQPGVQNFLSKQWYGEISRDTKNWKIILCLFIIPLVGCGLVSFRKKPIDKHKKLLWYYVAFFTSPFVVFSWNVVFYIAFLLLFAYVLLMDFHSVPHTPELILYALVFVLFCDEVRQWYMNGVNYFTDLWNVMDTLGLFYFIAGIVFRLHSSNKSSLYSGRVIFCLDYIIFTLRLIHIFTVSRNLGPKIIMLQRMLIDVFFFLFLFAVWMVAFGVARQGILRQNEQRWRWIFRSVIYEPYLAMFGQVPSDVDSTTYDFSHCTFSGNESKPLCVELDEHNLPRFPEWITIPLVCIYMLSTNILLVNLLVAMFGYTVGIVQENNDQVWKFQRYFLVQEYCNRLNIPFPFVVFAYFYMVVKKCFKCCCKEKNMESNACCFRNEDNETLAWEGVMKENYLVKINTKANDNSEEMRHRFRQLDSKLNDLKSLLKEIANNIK

IC50 (TRPM8 [1]) [nM]	Structure (SMILES)	V1/2 shift with 1 mM menthol (TRPM8 [2]) [mV]
0.4	COc1cc(CN(CCN)C(=O)OC(C)c2ccccc2)ccc1OCc1ccccc1 (centres unmarked) [PBMC, 1-phenylethyl-4-(benzyloxy)-3-methoxybenzyl(2-aminoethyl)carbamate]	
	CC1CCC(C(C)C)C(O)C1 (centres unmarked) [menthol]	79.1±21.1
